From patent US12421489B2, “Biological control of plant pathogenic microorganisms” (priority 2016, dated 2025)

Legend:
Format in all cases: in vivo
[1] = system: Pseudomonas syringae pv. actinidiae (Psa); assay: Field trials 2015-16: foliar sprays on ‘Hayward’ vines, Blocks B and C, Maketu; conditions: mean of Blocks B and C
Description: Grower standard treatment: Kocide Opti+1×Kasumin
Two field trial sites were established during spring 2015 with the intention of running across two consecutive seasons. The two ‘Hayward’ blocks (coded Block B and C) were located in separate orchards, near Maketu, Bay of Plenty. Block C was the same orchard as the 2014-15 trial, but a different area in the blocks was used. Vines in all blocks were pergola trained with a single vine per bay. The vines generally looked healthy at the commencement of the trial, but had suffered from significant Psa symptoms 2-3 years previously, according to the grower.
The spray treatments were applied to individual vines (eight replicates per treatment) laid out in a randomised block design. The treatments were: • 1. Nil—no Psa control products applied during the growing season • 2. Grower standard—copper-based foliar spray programme, including up to one antibiotic spray • 3. YBCA5—yeast-based foliar spray programme (2×10^7 CFU/mL)
Spray applications in the Grower standard and YBCA5 treatments were applied according to the schedule in Table 5. Common agricultural adjuvants were added to the Grower standard (0.04% Du-Wett®) and YBCA5 (0.03% Nu-Film-17@) applications.
The YBCA5 yeast was produced by liquid fermentation, sourced from three separate production facilities: PFR (Ruakura), AgResearch (Lincoln) and Callaghan Innovation (Lower Hutt). A concentrated yeast pellet after centrifugation was supplied to the laboratory at Ruakura and this was mixed with an inert carrier and extruded to form granules which were air dried overnight in a laminar flow hood. The number of colony forming units/g was calculated by dissolving 0.2 g samples into 20 mL phosphate buffered saline amended with 0.05% Tween 80 (PBSTw). This was serially diluted and 10-μL droplets of each dilution were transferred to Petri dishes with malt yeast extract agar amended with chloramphenicol. Petri dishes were incubated for 24 h at 25° C. and then 4-6° C. for a further 24 h, prior to counting the number of colonies. […]
Psa disease assessments were carried out in the ‘Hayward’ blocks just prior to flowering on 11 Nov. […] Assessments were commenced after taking one step (i.e. 1 m) from the edge of the plot and a set of 25 leaves were scored. […] This was then repeated down the other side of the vine so that four sets of 25 leaves (total=100) were scored within each plot. Similarly, 100 buds/plot were scored for the severity of bud-browning, as described above.
Data were expressed as Psa incidence (based on the proportion of leaves with Psa spotting/proportion of buds with brown sepals) and average Psa severity (mean % leaf area necrotic/mean number of brown sepals on buds). Data were log-transformed and analysed by ANOVA using Genstat (ver. 16) to determine treatment differences. […]

Botrytis spp. [2] = assay: Grape inoculation assay 5: Botrytis spp. rot of wounded table grape berries; conditions: Assay 5, wounded table grapes, 9 days, mean of two Botrytis spp. isolates; nil 30%; significantly reduced (P<0.001)
Description: Fruit assays were carried out on detached white table grape berries (‘Thompson seedless’—Assay 5), imported from California that were sourced from a local supermarket in Hamilton. Each berry was detached from the bunch with 3-4 mm of pedicel remaining and then subjected to a double wash process. Wash one consisted of 10 minutes in tap water on a rotary shaker (110 rpm) followed by a five minute wash in SDW (Wash 2). All berries were placed onto sterile black plastic grids in a sterile plastic meat tray with two sterile paper towels and were allowed to dry in a laminar flow hood. Each berry was lightly wounded with the aid of fine sandpaper, Grade P220, then dipped in the treatments for 60 seconds and again allowed to dry.
YBCA5 granules were prepared by fermenting the yeast for 3 days in a 10 L bioreactor (Labfors) using sterile liquid media (4% molasses and 1.2 g/L urea). […]
Botrytis spp. inoculum was prepared by growing each isolate of Botrytis spp. for 5-7 days on PDA (DIFCO, Fort Richard) medium and harvesting the conidia by washing the plate with SDW plus Tween 80 (0.01%) to make a stock suspension of inoculum. This stock suspension was then filtered using a cell strainer (70 μm mesh, Falcon) to remove mycelial fragments, the concentration determined using a haemocytometer and adjusted to the required concentration (2×10^4 conidia/mL) equivalent to 200 conidia in each 10 μL droplet. […]

Monilinia fructicola = assay: Cherry inoculation assays 1 and 3: Monilinia fruit rot of ‘Sweet Valentine’ cherries, dip treatment; conditions: Assay 3, cherries, cumulative after 16 days; Nil 88%; YBCA5 not significant (P>0.05), captan P<0.001
Description: (§1) Fruit-based screening assays were conducted in laboratories at the Plant and Food Research Ruakura Research Centre, Hamilton, New Zealand (PFR). PFR assays focused on dip treatment application of YBCA5 and fungicide controls.
(§2) Fruit for Monilinia fructicola and Botrytis spp. inoculation assays were carried out on sweet cherries (Prunus avium ‘Sweet Valentine’) that were picked at the harvest mature stage and sourced from the PFR Clyde Research Orchard in Central Otago on 8 Jan. 2016 for fruit based assays 1 and 2. A second harvest was carried out on 13 Jan. 2016 for fruit based assays 3 and 4.
(§3) Each cherry was then subjected to a double wash process. Wash one consisted of 10 minutes in tap water on a rotary shaker (110 rpm) followed by a five minute wash in SDW (Wash 2). […]
A Monilinia fructicola culture (isolate code MFGQ3), which had been originally isolated from an infected peach tree located in the Hamilton region during 1998, was used for the spray inoculation assays included in this section (Ruakura based assay). […] This stock suspension was then filtered using a 70 μm cell strainer (to remove mycelial fragments), the concentration determined using a haemocytometer and then adjusted, by dilution with SDW+Tw 80 (0.05%) to a final concentration of 1×10^4 conidia/mL. […]

Botrytis spp. [3] = assay: Cherry inoculation assays 2 and 4: Botrytis spp. fruit rot of ‘Sweet Valentine’ cherries, dip treatment; conditions: Assay 4, cherries, cumulative after 16 days; nil 67%; not significantly reduced (P>0.05)
Description: as §1, §2, §3
A Botrytis spp. culture (isolate code 09-2), which had been originally isolated from an infected kiwifruit located in the Bay of Plenty region during the 2000s, was used for the spray inoculation assays included in this section carried out on cherries. […] This stock suspension was then filtered using a 70 μm cell strainer (70 μm mesh) to remove mycelial fragments, the concentration determined using a haemocytometer and then adjusted, by dilution with SDW+Tw 80 (0.01% v/v) to a final concentration of 1×10^5 conidia/mL. […]

Row | SMILES | Severity of spotting (% leaf area) ([1]; assessed Nov. 11, 2015, Nil control 0.24, LSD 0.099) [b % leaf area] | Severity of bud browning (No. sepals) ([1]; assessed Nov. 11, 2015, Nil control 1.29, LSD 0.226) [b No. sepals] | % leaves with spotting (incidence) ([1]; assessed Nov. 11, 2015, Nil control 50, LSD 8.0) [b %] | % buds with necrosis (incidence) ([1]; assessed Nov. 11, 2015, Nil control 61, LSD 9.9) [b %] | incidence of Botrytis spp. fruit rot (Botrytis spp. [2]) [%] | incidence of Monilinia fruit rot (Monilinia fructicola) [%] | incidence of Botrytis spp. fruit rot (Botrytis spp. [3]) [%]
1 | [Cu+2].[OH-].[OH-] [Kocide Opti, Copper Hydroxide] | 0.07 | 0.80 | 27 | 45 | – | – | –
2 | O=C1C2CC=CCC2C(=O)N1SC(Cl)(Cl)Cl (stereo not shown) [captan] | – | – | – | – | 10 | 12 | 43
